Test results taken from PubChem BioAssay (NCI).
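Results reflect a 48-hour exposure of cells in 96-well plates to compound at five concentrations. TGI: concentration producing complete growth inhibition.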

Assays:
Experiment in all cases: DTP human tumour cell line panel, 48 h
[1] = test system: ACHN renal
[2] = test system: BT-549 breast
[3] = test system: DMS 114 small cell lung
[4] = test system: LXFL 529 NSCLC
[5] = test system: MOLT-4 leukemia
[6] = test system: RPMI-8226 leukemia
[7] = test system: SK-MEL-28 melanoma
[8] = test system: SNB-75 CNS
[9] = test system: SW-620 colon
[10] = test system: T-47D breast

Row | Compound | TGI [1] [µM] | TGI [2] [µM] | TGI [3] [µM] | TGI [4] [µM] | TGI [5] [µM] | TGI [6] [µM] | TGI [7] [µM] | TGI [8] [µM] | TGI [9] [µM] | TGI [10] [µM]
1 | C=C1C(=O)OC2/C=C(\C)C3OC3/C=C(/C(=O)OC)C(OC(C)=O)C(OC(=O)C(C)(O)C(C)OC(C)=O)C12 (stereo not given) | 18.2 | 2.37 | 4.01 | 2.36 | 3.68 | 7.9 | 6.14 | 10.6 | 2.25 | 36.8
2 | CC1(C)OC(=O)C(=C2CC(c3ccccc3)c3ccccc32)C(=O)O1 (stereo not given) | > 100 | – | > 100 | > 100 | > 100 | > 100 | > 100 | > 100 | > 100 | –
3 | CCC/C(=N\NC(=O)c1cc2ccccc2cc1O)C(CC)C(=O)CCC(=O)N(Cc1ccccc1)Cc1ccccc1 (stereo not given) | > 100 | – | 59.7 | > 100 | > 100 | > 100 | > 100 | > 100 | > 100 | –
4 | ClC[Si]12OCCN(CCO1)CCO2 | > 100 | – | > 100 | > 100 | > 100 | > 100 | > 100 | > 100 | > 100 | –
5 | CCC(/C(=N\Nc1c(Cl)cc(Cl)cc1Cl)c1ccccc1)n1ccnc1C (stereo not given) | 19.5 | – | 22.3 | 25.8 | 37.1 | 41 | 29.7 | 29.5 | 35.7 | –
6 | CC(C)CC(=O)NS(=O)(=O)c1ccccc1 | > 100 | – | > 100 | > 100 | > 100 | > 100 | > 100 | > 100 | > 100 | –
